Converted amounts (≈) assume the structure as drawn. Where two headings read alike, the source gives them in different places.
Legend:
S. mutans biofilm = S. mutans biofilm formation and inhibition assay (96-well plates, crystal violet); type: cell-based, Streptococcus mutans; details: for IC50: Streptococcus mutans
S. mutans = assay: microbe, parasite or virus in culture; type: cell-based, Streptococcus mutans; details: for Growth MIC50: Table 8, stilbenes
Summary of the method: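 Mid-exponential cultures (OD470 0.6) in THB were exposed to compound concentrations for 16 h, with growth read at OD470 and normalised to 1% DMSO control (100%). CFU/mL were also counted after 24 h at 37 °C and compared with the DMSO control.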

GtfB catalytic domain = GtfB catalytic domain (Streptococcus mutans serotype c (strain ATCC 700610 / UA159), UniProt P08987); assay: OctetRed96 binding kinetics, GtfB; details: 1:1 binding model
GtfB catalytic domain, sequence (P08987 268-1074 limits assumed): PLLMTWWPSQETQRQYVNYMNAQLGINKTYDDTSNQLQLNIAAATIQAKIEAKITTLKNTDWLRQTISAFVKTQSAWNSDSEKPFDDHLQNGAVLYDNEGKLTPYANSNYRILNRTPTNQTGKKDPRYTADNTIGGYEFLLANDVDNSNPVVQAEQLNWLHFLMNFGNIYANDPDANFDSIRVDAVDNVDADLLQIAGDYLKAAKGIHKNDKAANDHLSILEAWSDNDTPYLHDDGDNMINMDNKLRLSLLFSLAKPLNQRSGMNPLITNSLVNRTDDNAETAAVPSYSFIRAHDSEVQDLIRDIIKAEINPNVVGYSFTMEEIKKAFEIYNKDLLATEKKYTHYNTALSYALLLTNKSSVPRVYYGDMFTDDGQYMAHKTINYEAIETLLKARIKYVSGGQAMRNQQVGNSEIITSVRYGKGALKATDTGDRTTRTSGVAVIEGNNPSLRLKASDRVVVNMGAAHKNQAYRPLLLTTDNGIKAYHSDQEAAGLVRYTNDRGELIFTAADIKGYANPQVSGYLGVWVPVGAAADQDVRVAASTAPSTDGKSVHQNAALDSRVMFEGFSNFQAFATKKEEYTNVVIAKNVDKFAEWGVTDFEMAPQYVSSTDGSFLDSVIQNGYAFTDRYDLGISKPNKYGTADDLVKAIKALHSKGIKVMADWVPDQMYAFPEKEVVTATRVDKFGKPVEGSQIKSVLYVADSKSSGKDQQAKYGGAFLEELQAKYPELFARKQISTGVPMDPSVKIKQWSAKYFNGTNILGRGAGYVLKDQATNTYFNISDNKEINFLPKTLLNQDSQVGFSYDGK
Source text: (§1) To determine if the inhibition is attributed by the binding of the lead compound to the enzymes, the OctetRed96 system was used to characterize protein-small molecule binding kinetics. The his-tagged catalytic domains of GtfB and GtC were immobilized separately onto an anti-penta-HIS (HIS1K) biosensor which consists of high affinity, high specificity penta-his antibody pre-immobilized on a fiber optic biosensor. This sensor was then exposed to varying concentrations of #G43.
Expression and purification of GtfB and GtfC catalytic domains. The DNA fragment coding for either GtfB catalytic (residues 268 aa-1074 aa) or GtfC-catalytic (residues 295 aa-1103 aa) was PCR amplified with primer sets of GtfB-BamH1-F and GtfB-Xho1-R, GtfC-BamH1-F and GtfC-Xhol1-R respectively using S. mutans genomic DNA as a template. Each amplified fragment was cloned into pET-sumo vector respectively and transformed in Escherichia coli BL21(DE3). The recombinant strain grown to OD600=0.8 in LB medium was induced with 0.1 mM IPTG at 18° C. overnight. Cell lysates prepared form the overnight grown E. coli cells were subjected to protein purification using HiTrap™ Column (Ni^2+ affinity) followed by gel filtration experiments as described (Zhu, F. et al. Structural and functional analysis of a new subfamily of glycosyltransferases required for glycosylation of serine-rich streptococcal adhesins. The Journal of biological chemistry 286, 27048-27057, doi:10.1074/jbc.M110.208629 (2011); Zhang, H. et al. The highly conserved domain of unknown function 1792 has a distinct glycosyltransferase fold. Nature communications 5, 4339, doi:10.1038/ncomms5339 (2014)).
Octet Red analysis. Octet full kinetic binding analysis was performed for binding of #G43 to GtfB and GtfC. The rate constant, KD, was determined using the Octet® Red96 system (ForteBio, Menlo Park, Calif.). Phosphate buffer with 3.5% (w/v) DMSO was used. The proteins were captured on dip-and-read Anti-Penta-HIS (HIS1K) Biosensor. These consist of high affinity, high specificity Penta-His antibody from Qiagen pre-immobilized on a fiber optic biosensor. The binding of #G43 at 3-fold serial dilutions in phosphate buffer from 200, 66.6, 22.2, 7.4, 2.5 to 0 μM was assessed. The ForteBio Octet analysis software (ForteBio, Menlo Park, Calif.) was used to generate the sensorgram and the accuracy of the analysis.
OctetRed analysis. […] GtfC and GtfB were purified. The Octet® Red96 system (ForteBio, Menlo Park, Calif.) was used to determine the rate constant, KD. […] Sensorgrams and the accuracy of the analysis was calculated using the ForteBio OctetRed analysis software (ForteBio, Menlo Park, Calif.).

S. sanguinis = assay: Growth of commensal S. sanguinis; type: cell-based, Streptococcus sanguinis
Method: (§2) Cell viability of S. mutans, S. gordonii, S. sanguinis, Aggregatibacter actinomycetemcomitans and Actinomyces. […] The number of colony-forming units (CFU) per milliliter of each sample treated with selected compounds at different concentrations was enumerated after incubation for 24 h at 37° C. and compared to the values obtained from the DMSO control group. Overnight broth cultures were transferred by 1:50 dilutions into fresh THB medium and were allowed to grow until mid-exponential phase (OD470 nm 0.6) before transfer to 96-well plates containing desired concentration of the compound. After 16 h incubation, bacterial growth was measured at OD470, and normalized to the DMSO control (100%).
(§3) Cell viability of S. mutans and commensal S. gordonii and S. sanguinis. Effects of lead small molecules on cell viability were examined. The number of colony-forming units (CFU) per milliliter for each compound at different concentrations was determined after incubation for 24 h at 37° C. and compared to the values obtained from the DMSO control group.
(§4) Cell viability of S. mutans and commensal S. gordonii and S. sanguinis. […] DMSO served as a control group and provided a relative comparison for the number of colony-forming units (CFU) per milliliter for each compound at different concentrations was determined after incubation for 24 h at 37° C. The final concentration of DMSO used in the assays was 1%.

S. gordonii = assay: Growth of commensal S. gordonii; type: cell-based, Streptococcus gordonii
Method: as §2, §3, §4

GtfC catalytic domain = GtfC catalytic domain (Streptococcus mutans serotype c (strain ATCC 700610 / UA159), UniProt P13470); assay: OctetRed96 binding kinetics, GtfC
GtfC catalytic domain, sequence (P13470 295-1103 limits assumed): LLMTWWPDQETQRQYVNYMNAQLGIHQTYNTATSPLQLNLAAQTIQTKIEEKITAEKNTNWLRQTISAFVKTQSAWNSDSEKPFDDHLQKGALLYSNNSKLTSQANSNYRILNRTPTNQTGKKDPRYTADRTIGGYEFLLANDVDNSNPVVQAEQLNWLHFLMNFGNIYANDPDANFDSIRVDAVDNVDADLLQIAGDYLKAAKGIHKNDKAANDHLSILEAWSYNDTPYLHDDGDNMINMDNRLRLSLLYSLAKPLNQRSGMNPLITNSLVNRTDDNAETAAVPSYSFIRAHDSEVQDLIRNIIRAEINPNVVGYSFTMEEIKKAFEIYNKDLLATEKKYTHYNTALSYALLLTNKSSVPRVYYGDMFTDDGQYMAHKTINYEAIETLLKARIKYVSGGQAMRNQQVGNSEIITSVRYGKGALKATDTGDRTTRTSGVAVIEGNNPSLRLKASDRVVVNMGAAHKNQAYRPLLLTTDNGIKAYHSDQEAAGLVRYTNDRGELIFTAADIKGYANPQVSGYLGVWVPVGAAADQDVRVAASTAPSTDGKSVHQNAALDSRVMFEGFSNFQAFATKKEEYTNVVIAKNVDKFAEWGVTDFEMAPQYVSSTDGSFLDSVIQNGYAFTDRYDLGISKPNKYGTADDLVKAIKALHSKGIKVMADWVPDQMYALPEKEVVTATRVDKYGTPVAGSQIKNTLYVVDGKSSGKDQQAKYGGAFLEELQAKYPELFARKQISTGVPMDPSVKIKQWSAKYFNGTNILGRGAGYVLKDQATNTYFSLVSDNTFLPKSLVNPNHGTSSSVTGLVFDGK
Source text: as §1
Expression and purification of GtfB and GtfC catalytic domains. The DNA fragment coding for either GtfB catalytic (residues 268 aa-1074 aa) or GtfC-catalytic (residues 295 aa-1103 aa) was PCR amplified with primer sets of GtfB-BamH1-F and GtfB-Xho1-R, GtfC-BamH1-F and GtfC-Xhol1-R respectively using S. mutans genomic DNA as a template. Each amplified fragment was cloned into pET-sumo vector respectively and transformed in Escherichia coli BL21(DE3). […]
Octet Red analysis. […] The rate constant, KD, was determined using the Octet® Red96 system (ForteBio, Menlo Park, Calif.). […] The proteins were captured on dip-and-read Anti-Penta-HIS (HIS1K) Biosensor. […] The binding of #G43 at 3-fold serial dilutions in phosphate buffer from 200, 66.6, 22.2, 7.4, 2.5 to 0 μM was assessed. […]
OctetRed analysis. […] Sensorgrams and the accuracy of the analysis was calculated using the ForteBio OctetRed analysis software (ForteBio, Menlo Park, Calif.).

[1] = system: Aggregatibacter actinomycetemcomitans VT1169; assay: Growth of Aggregatibacter actinomycetemcomitans; type: cell-based; details: 200 μM
Method: as §2

[2] = Streptococcus mutans, Table 3, >300 = no inhibition up to 300 μM, NI = no inhibition up to 400 μM, read-out: Growth Inhibition MIC50
[3] = Streptococcus mutans, Table 4, stilbenes, average of at least 5 measurements, NI = no inhibition, read-out: Growth MIC50
[4] = average of at least 5 measurements, NI = no inhibition

SMILES: Oc1cc(O)cc(/C=C/c2ccc(O)c(O)c2)c1 [Piceatannol]
- IC50 (S. mutans biofilm; Table 3, read-out: Biofilm Inhibition IC50): 52 ± 6 µM
- IC50 (S. mutans biofilm; Table 4, stilbenes, NI = no inhibition, read-out: Biofilm IC50): 52 ± 6 µM
- IC50 (S. mutans biofilm; Table 8, stilbenes, NI = no inhibition, read-out: Biofilm IC50): 52 ± 6 µM
- IC50 (S. mutans biofilm; read-out: S. mutans biofilm IC50): 52 µM
- inhibition of S. mutans cell viability (%) at 400 µM (S. mutans; Streptococcus mutans, 400 μM): 37%
- MIC50 (S. mutans; [2]): 564 ± 38 µM (≈ 138 µg/mL)
- MIC50 (S. mutans; [3]): 564 ± 37.8 µM (≈ 138 µg/mL)
- inhibition at 52 µM (S. mutans; Streptococcus mutans, at 52 μM, read-out: growth of S. mutans inhibited): < 10%
- Growth MIC50 (S. mutans; [4]): 564 ± 37.8 µM
- Kd (GtfB catalytic domain): 14.6 µM
- decrease of S. sanguinis cell density (S. sanguinis; 400 μM): 15-18%
- inhibition at 52 µM (S. sanguinis; Streptococcus sanguinis, at 52 μM, read-out: growth of S. sanguinis inhibited): < 10%
- decrease of S. gordonii cell density (S. gordonii; 400 μM): 15-18%
- inhibition at 52 µM (S. gordonii; Streptococcus gordonii, at 52 μM, read-out: growth of S. gordonii inhibited): < 10%

SMILES: Oc1ccc(/C=C/c2cc(O)cc(O)c2)cc1 [Resveratrol, reference compound]
- MIC50 (S. mutans; [2]): 546 ± 16 µM (≈ 125 µg/mL)
- MIC50 (S. mutans; [3]): 546 ± 15.9 µM (≈ 125 µg/mL)
- Growth MIC50 (S. mutans; [4]): 546.4 ± 15.9 µM
- Kd (GtfB catalytic domain): 144 µM
- Kd (GtfC catalytic domain; stilbenes, 1:1 binding mode): 510 µM

SMILES: NC(=O)c1ccccc1NC(=O)c1cc2cc([N+](=O)[O-])ccc2s1 [#G43]
- inhibition of S. mutans biofilms at 12.5 μM (S. mutans biofilm; 12.5 μM, crystal violet assay): more than 85%
- S. mutans cell viability (CFU) versus control (S. mutans; up to 200 μM): No significant difference
- Kd (GtfB catalytic domain): 3.7 µM
- Kd (GtfC catalytic domain; 1:1 binding model): 0.0469 µM
- effect on S. sanguinis growth (S. sanguinis; 200 μM, OD470): did not have any effect on bacterial growth
- effect on S. gordonii growth (S. gordonii; 200 μM, OD470): did not have any effect on bacterial growth
- inhibition of Aggregatibacter actinomycetemcomitans growth [1]: no significant inhibition
